According to PMC1997131, “Enzymes involved in DNA ligation and end-healing in the radioresistant bacterium Deinococcus radiodurans” (BMC Molecular Biology, 2007):

Biological target: T1, LigA (Deinococcus radiodurans, UniProt Q9RSQ5)
T1 construct: full-length, N-terminal hexahistidine tag (pRSETb, kept), E. coli BL21(DE3)
Assay: adenylyltransferase assay, SDS-PAGE autoradiography
Format: biochemical
Details: 0.1 μM [32P]-NAD+, 1 mM MnCl2, pH 6.8, 30 °C; covalent AMP adduct; labelled compound

SMILES: NC(=O)c1ccc[n+]([C@@H]2O[C@H](COP(=O)(O)OP(=O)(O)OC[C@H]3O[C@@H](n4cnc5c(N)ncnc54)[C@H](O)[C@@H]3O)[C@@H](O)[C@H]2O)c1 [NAD^+]
- adenylyltransferase assay, SDS-PAGE autoradiography: in an adenylyltransferase activity assay LigA wt formed an AMP-ligase complex
